Type in all cases: cell-based
The subject of one test is U87 glioma cells. The experiment in a line: Autophagy (vacuoles, LC3-II), U87. The settings on record: chemo-resistant U87 glioma cells, concentration-dependent. The source says:
Autophagy is a characteristic of mTOR inhibition.
(§1) Concentration-dependent conversion of LC3-I to LC3-II confirms the increasing phenomenon of autophagy in these cells.

For a further test, the system named is cancer cell lines. Kind of test: SRB cell proliferation assay, range of cancer cell lines (general statements). Here is the method:
(§2) Cell proliferation was assessed using the sulforhodamine B (SRB) assay. Cells seeded in 96-well plate (2,000-3,000 cell/well) were treated with MPL (0, 1, 5, 10, 25, 50 and 100 μmol/L) for 72 h. Cells were then fixed, washed and stained with 100 μl of 0.4% (w/v) SRB dissolved in 1% acetic acid. Unbound dye was removed by five washes with 1% acetic acid before air drying. Bound SRB was solubilized with 100 μl of 10 mM Tris base (pH 10.5) and the absorbance read at 570 nm. Exactly the same procedure was used to assess MPL-SO2. Both agents were dissolved in ethanol and diluted with media to give the final concentrations required for cell culture assays.
In brief, MPL and MPL-SO2 were tested in vitro against a wide range of cancer cell-lines with extensively different disease characteristics. For further detailed studies, human ovarian cancer cell lines OVCAR-3 and A2780 were chosen. Additionally, normal human ovarian surface epithelial cells (HOSE) and were cultured in the presence of MPL (0, 5, 10, 25, 50 and 100 μM) for 72 h. Cell viability was assessed using Trypan blue assay (FIG. 9). Similarly, effect of MPL on the growth of normal epithelial, endothelial, embryonic and fetal cells were investigated (FIG. 10) while cell proliferation was assessed using the SRB assay (FIG. 11). Control (vehicle treated) cells were taken to present 100% proliferation and the MPL treated groups are expressed as percentage of control±SEM. Each drug concentration was tested in quadruplicate and each experiment was repeated at least twice. For statistical comparisons, each drug treated group is compared to the control group using Student's t test. To examine concentration dependent drug effect, analysis of variance (ANOVA) was used. P values are: *=<0.05; **<0.01 and ***=<0.001, **** p<0.0001. […] In order to find out if the MPL effect is mediated through the nicotinic acetyl choline receptor and in particular the nACHR7 subtype, cells were pretreated with antagonists and then exposed to MPL (FIG. 12).

Another test relates to U251 glioma cells. The experiment in a line: Autophagy (vacuoles), U251.
Excerpt: as §1

The subject of another test is 1A9 cells. Kind of test: SRB cell proliferation assay, 1A9. The note with it: Homo sapiens. How it is done: as §2
A further test concerns T47-D cells. The experiment in a line: SRB cell proliferation assay, T47-D. The note with it: Homo sapiens, T47D. Here is the method: as §2

Where two headings read alike, the source gives them in different places.

Consider `C[C@](C#N)(COc1cc(C#N)ccc1C(F)(F)F)NC(=O)c1ccc(SC(F)(F)F)cc1` [MPL, N-[(1S)-1-Cyano-2-(5-cyano-2-trifluoromethyl-phenoxy)-1-methyl-ethyl]-4-trifluoromethylsulfanyl-benzamide], for which the “expression of LC3-II (autophagy)” value in the test on U87 glioma cells is “increased expression of LC3-II”. Moreover, in the test on cancer cell lines (ovarian chemo-resistant, glioma temozolimide resistant, breast cancer tamoxifen resistant cells), the “antiproliferative action on chemo-resistant cell lines” value was “sensitive”. Also, the “antiproliferative activity, cancer cell lines versus normal cells” value with cancer cell lines (results of Table 2) is listed as “high antiproliferative activity in cancer cell lines, whereas, normal cells are far less affected”. Further, the “formation of autophagy (vacuoles)” value in the test with U251 glioma cells is on record as “concentration-dependent formation of autophagy”. The IC50 in the test with 1A9 cells (1A9, ovarian cancer (Table 2), read-out: IC50 in suppressing proliferation) turned out to be 2.5 ± 0.45 µM; with 1A9 cells (1A9, ovarian cancer, 72 h, SRB assay (Table 1), read-out: IC50) it was 1.8 µM; in the test on T47-D cells (breast cancer (Table 2), read-out: IC50 in suppressing proliferation) it was 5.3 ± 0.003 µM; in the test on T47-D cells (breast cancer, 72 h, SRB assay (Table 1), read-out: IC50), 5.7 µM.
